From patent publication US11591634B1, “Forecasting bacterial survival-success and adaptive evolution through multiomics stress-response mapping and machine learning” (priority 2019, dated 2023)
≈ marks a conversion by molar mass, not a printed value.

How the values were obtained:
Format in all cases: cell-based, Streptococcus pneumoniae
S. pneumoniae T4 = test: Fitness outcome under antibiotic exposure (growth curve assay); settings: for Fitness: S. pneumoniae T4 wild-type, 1xMIC antibiotic, growth curves; for Survive (real survival outcome): strain T4, Adapted FALSE
Description: (§1) To test whether a gene-panel model can be trained that predicts fitness for many different conditions, a large RNA-Seq dataset was generated for the human pathogen Streptococcus pneumoniae. […] These include cell wall synthesis inhibitors (CWSI), DNA synthesis inhibitors (DSI), protein synthesis inhibitors (PSI) and RNA synthesis inhibitors ((RSI); FIG. 1A, Tables 1 & 2). Each strain was exposed to each antibiotic for 2 to 4 hours and cells were harvested for RNA-Seq at various time points. As T4 and 19F are susceptible to most antibiotics used, the transcriptional profiles in the presence of antibiotics mostly represent cases of low fitness (FIG. 1A, sensitive strain, 1xMICWT). In order to find patterns that differentiate fitness outcomes, adapted strains were generated with increased fitness in the presence of antibiotics by serial passaging wildtype T4 and 19F in the presence of increasing amounts of antibiotics. Four independent adapted populations for each strain were selected on individual antibiotics. These adapted strains could grow in the presence of antibiotic at 1.5xMIC of the wildtype strain, albeit with a small growth defect (FIGS. 6A-6E & 6F). In parallel, RNA-Seq was performed on S. pneumoniae strains D39 and T4 in a chemically defined medium, and media from which either uracil, Glycine or L-Valine was removed, which are essential for D39 but not T4. This enabled the potential identification of a common stress signature that is shared between antibiotic exposure and nutrient deprivation, and across multiple strains. Lastly, D39 was adapted to grow in the absence of each individual nutrient, after which RNA-Seq was repeated for adapted clones (Table 1 lists all 24 strains, 67 populations and 267 RNA-Seq experiments).
(§2) S. pneumoniae strain TIGR4 (T4; NC_003028.3) is a serotype 4 strain originally isolated from a patient^3,4, Taiwan-19F (19F; NC_012469.1) is a multi-drug resistant strain^5,6 and D39 (NC_008533) is a commonly used serotype 2 strain originally isolated from a patient about 90 years ago^7. Strain PG1 and PG19 were isolated from adults with pneumococcal bacteremia infection and included in the Pneumococcal Bacteremia Collection Nijmegen (PBCN)^8. All S. pneumoniae gene numbers refer to the T4 genome. Correspondence between homologous genes among S. pneumoniae strains and gene function annotations are described herewith. Escherichia coli strain AR538, Klebsiella pneumoniae strain AR497 and Salmonella enterica subsp Typhimurium strain AR635 were clinical isolates obtained from the Center of Disease Control (CDC). Staphylococcus aureus strain MN6 was kindly provided by George Sakoulas (Center of Immunity, Infection & Inflammation, UCSD School of Medicine). Unless otherwise specified, S. pneumoniae strains were cultivated in Todd Hewitt medium with 5% yeast extract (THY) with 5 μL/mL oxyrase (Oxyrase, Inc) or on sheep's blood agar plates (Northeastern Laboratories) at 37° C. with 5% CO2. A. baumannii, E. coll. K. pneumoniae, S. aureus and S. Typhimurium were cultured in Mueller Hinton broth II (Sigma) at 37° C. with 220 rpm constant shaking. Tn-Seq and RNA-Seq experiments of S. pneumoniae under nutrient-depletion and antibiotic conditions were performed in chemically defined medium (CDM)^9 and semi-defined minimal medium (SDMM)^10, respectively. RNA-Seq experiments for A. baumannii, S. Typhimurium, E. coll. K. pneumoniae, and S. aureus were performed in Mueller Hinton broth II. Single strain growth assays were performed at least three times using 96-well plates by taking OD600 measurements on a Tecan Infinite 200 PRO plate reader.

[1] = system: S. pneumoniae strain TIGR4 (T4); test: Determination of relative minimal inhibitory concentration (MIC); settings: lowest concentration that abolishes bacterial growth, 16 hours, 37° C.; for MIC: Streptococcus pneumoniae, read-out: 1x MIC for T4
Description: (§3) Each concentration was tested in triplicate. Growth was monitored on a Tecan Infinite 200 PRO plate reader at 37° C. for 16 hours. MIC is determined as the lowest concentration that abolishes bacterial growth (FIGS. 6A-6H).

S. pneumoniae 19F = test: Fitness outcome under antibiotic exposure (growth curve assay); settings: for Fitness: S. pneumoniae 19F wild-type, growth curves; for Survive (real survival outcome): strain 19F, Adapted FALSE
Description: as §1, §2

[2] = system: S. pneumoniae strain Taiwan-19F (19F); test: Determination of relative minimal inhibitory concentration (MIC); settings: for MIC: Streptococcus pneumoniae, 16 h, read-out: 1x MIC for 19F
Description: as §3

S. pneumoniae strain D39 = test: Real survival outcome (fitness outcome) under nutrient condition; settings: strain D39, Adapted FALSE, Concentration NA
[3] = system: adapted S. pneumoniae strain D39; test: Real survival outcome (fitness outcome) under nutrient condition, adapted strain; settings: strain D39, Adapted TRUE, Concentration NA
[4] = system: antibiotic-adapted S. pneumoniae T4 (aT4); test: Fitness outcome under antibiotic exposure (growth curve assay); settings: for Survive (real survival outcome): strain T4, Adapted TRUE
Description: as §1, §2
(§4) D39 was used as the parental strain in nutrient-depletion evolution experiments; T4 and 19F were used as parental strains in antibiotic evolution experiments. […] Four replicate populations were serial passaged in CDM or SDMM as controls to identify background adaptations in nutrient or antibiotic adaptation experiments, respectively. […]

[5] = system: antibiotic-adapted S. pneumoniae 19F (a19F); test: as above; settings: for Fitness: a19F, 19F adapted to the respective antibiotic, 1xMIC and 1.5-2xMIC, growth curves; for Survive (real survival outcome): strain 19F, Adapted TRUE
Description: as §1, §2, §4

Compound	Fitness (S. pneumoniae T4)	Survive (real survival outcome) (S. pneumoniae T4; Concentration NA)	MIC [1] [µg/mL]	MIC [2] [µg/mL]	other results
CC1(C)S[C@@H]2[C@H](NC(=O)[C@H](N)c3ccc(O)cc3)C(=O)N2[C@H]1C(=O)O [Amoxicillin, amoxicillin]	Low	FALSE	0.12 (≈ 0.328 µM)		
CO/N=C(\C(=O)N[C@@H]1C(=O)N2C(C(=O)[O-])=C(C[N+]3(C)CCCC3)CS[C@H]12)c1csc(N)n1 [Cefepime, cefepime]	Low		0.8 (≈ 1.66 µM)	2.2 (≈ 4.58 µM)	Fitness (S. pneumoniae 19F): Low, and High; Survive (real survival outcome) (S. pneumoniae 19F; Concentration H (high)): FALSE; Survive (real survival outcome) (S. pneumoniae 19F; Concentration L (low)): TRUE; Survive (real survival outcome) (S. pneumoniae T4; Concentration L (low)): FALSE
CO/N=C(\C(=O)N[C@@H]1C(=O)N2C(C(=O)O)=C(CSc3nc(=O)c(=O)[nH]n3C)CS[C@H]12)c1csc(N)n1 [Ceftriaxone, ceftriaxone]	Low	FALSE	0.007 (≈ 0.0126 µM)		
CCCCCCCCCC(=O)N[C@@H](Cc1c[nH]c2ccccc12)C(=O)N[C@H](CC(N)=O)C(=O)N[C@@H](CC(=O)O)C(=O)N[C@@H]1C(=O)NCC(=O)N[C@@H](CCCN)C(=O)N[C@@H](CC(=O)O)C(=O)N[C@H](C)C(=O)N[C@@H](CC(=O)O)C(=O)NCC(=O)N[C@H](CO)C(=O)N[C@@H]([C@H](C)CC(=O)O)C(=O)N[C@@H](CC(=O)c2ccccc2N)C(=O)O[C@@H]1C [Daptomycin, daptomycin]	Low		35 (≈ 21.6 µM)	35 (≈ 21.6 µM)	Fitness (S. pneumoniae 19F): Low; Survive (real survival outcome) (S. pneumoniae 19F; Concentration L (low)): FALSE; Survive (real survival outcome) (S. pneumoniae T4; Concentration L (low)): FALSE
NCC(=O)O [GLY]		TRUE			Survive (real survival outcome) (S. pneumoniae strain D39): FALSE
C[C@@H](O)[C@H]1C(=O)N2C(C(=O)O)=C(SCCN=CN)C[C@H]12 [Imipenem, imipenem]			0.03 (≈ 0.1 µM)		
NC[C@H]1O[C@H](O[C@H]2[C@H](O)[C@@H](O[C@H]3O[C@H](CO)[C@@H](O)[C@H](N)[C@H]3O)[C@H](N)C[C@@H]2N)[C@H](O)[C@@H](O)[C@@H]1O [Kanamycin, kanamycin]			90 (≈ 186 µM)	90 (≈ 186 µM)	
C[C@H]1COc2c(N3CCN(C)CC3)c(F)cc3c(=O)c(C(=O)O)cn1c23 [Levofloxacin, levofloxacin]			1 (≈ 2.77 µM)	1.1 (≈ 3.04 µM)	
CC(=O)NC[C@H]1CN(c2ccc(N3CCOCC3)c(F)c2)C(=O)O1 [Linezolid, linezolid]	Low	FALSE	0.5 (≈ 1.48 µM)		
COc1c(N2C[C@@H]3CCCN[C@@H]3C2)c(F)cc2c(=O)c(C(=O)O)cn(C3CC3)c12 [Moxifloxacin, moxifloxacin]			0.45 (≈ 1.12 µM)		
CO[C@H]1/C=C/O[C@@]2(C)Oc3c(C)c(O)c4c(O)c(c(/C=N/N5CCN(C)CC5)c(O)c4c3C2=O)NC(=O)/C(C)=C\C=C\[C@H](C)[C@H](O)[C@@H](C)[C@@H](O)[C@@H](C)[C@H](OC(C)=O)[C@@H]1C [Rifampicin, rifampicin]			0.035 (≈ 0.0425 µM)	0.035 (≈ 0.0425 µM)	
CN(C)[C@@H]1C(O)=C(C(N)=O)C(=O)[C@@]2(O)C(O)=C3C(=O)c4c(O)cccc4[C@@](C)(O)[C@H]3C[C@@H]12 [Tetracycline, tetracycline]			8 (≈ 18 µM)	22 (≈ 49.5 µM)	
NC[C@H]1O[C@H](O[C@H]2[C@H](O)[C@@H](O[C@H]3O[C@H](CO)[C@@H](O)[C@H](N)[C@H]3O)[C@H](N)C[C@@H]2N)[C@H](N)C[C@@H]1O [Tobramycin, tobramycin]	Low	FALSE	175 (≈ 374 µM)		
O=c1cc[nH]c(=O)[nH]1 [URA]		TRUE			Survive (real survival outcome) [3]: TRUE; Survive (real survival outcome) (S. pneumoniae strain D39): FALSE
CC(C)[C@H](N)C(=O)O [VAL]		TRUE			Survive (real survival outcome) [3]: TRUE; Survive (real survival outcome) (S. pneumoniae strain D39): FALSE
CN[C@H](CC(C)C)C(=O)N[C@H]1C(=O)N[C@@H](CC(N)=O)C(=O)N[C@H]2C(=O)N[C@H]3C(=O)N[C@H](C(=O)N[C@H](C(=O)O)c4cc(O)cc(O)c4-c4cc3ccc4O)[C@H](O)c3ccc(c(Cl)c3)Oc3cc2cc(c3O[C@@H]2O[C@H](CO)[C@@H](O)[C@H](O)[C@H]2O[C@H]2C[C@](C)(N)[C@H](O)[C@H](C)O2)Oc2ccc(cc2Cl)[C@H]1O [Vancomycin, vancomycin]	Low		0.24 (≈ 0.166 µM)	0.24 (≈ 0.166 µM)	Fitness ([4]; aT4, T4 adapted to the respective antibiotic, 1xMIC and 1.5-2xMIC, growth curves): High; Survive (real survival outcome) ([4]; Concentration H (high)): TRUE; Survive (real survival outcome) ([4]; Concentration L (low)): TRUE; Fitness [5]: High; Survive (real survival outcome) ([5]; Concentration H (high)): TRUE; Survive (real survival outcome) ([5]; Concentration L (low)): TRUE; Fitness (S. pneumoniae 19F): Low; Survive (real survival outcome) (S. pneumoniae 19F; Concentration L (low)): FALSE; Survive (real survival outcome) (S. pneumoniae T4; Concentration L (low)): FALSE
cotrimoxazole	Low	FALSE			1x MIC for T4 [1]: 6.5 µg/mL
penicillin	Low				Survive (real survival outcome) ([4]; Concentration H (high)): TRUE; Survive (real survival outcome) ([4]; Concentration L (low)): TRUE; Fitness [5]: High; Fitness (S. pneumoniae 19F): High; Survive (real survival outcome) (S. pneumoniae 19F; Concentration L (low)): TRUE; Survive (real survival outcome) (S. pneumoniae T4; Concentration L (low)): FALSE; 1x MIC for T4 [1]: 0.03 µg/mL; 1x MIC for 19F ([2]; S. pneumoniae 19F, lowest concentration that abolishes bacterial growth, 16 hours, 37° C.): 2.25 µg/mL
